According to EPA's ToxRefDB 2:

Assays:
dog [1] = settings: Chronic toxicity; beagle; Oral; Feed; dose end: 52 week; group: systemic; systemic / clinical chemistry / albumin / albumin + systemic / clinical chemistry / triglycerides / triglycerides + systemic / pathology …
rat [2] = settings: Subchronic oral toxicity in rodents, wistar, Feed, dose end: 90 day, group: systemic
dog [3] = settings: Subchronic oral toxicity in nonrodent, beagle, Feed, dose end: 13 week, group: systemic, systemic / organ weight / liver / absolute + systemic / organ weight / liver / relative to body weight + systemic / pathology microscopic / …
mouse [4] = settings: Carcinogenicity, other, Oral, Feed, dose end: 26 month, group: systemic
rat [5] = settings: Prenatal developmental toxicity study, wistar, Dermal, Topical, dose end: 15 GD
rat [6] = settings: Combined chronic toxicity/carcinogenicity; wistar; Oral; Feed; dose end: 24 month; group: systemic; systemic / in life observation / body weight / body weight + systemic / in life observation / body weight / body weight gain + systemic / …
rabbit = settings: Prenatal developmental toxicity study, himalayan, Oral, Gavage/Intubation, dose end: 18 GD
rat [7] = settings: Prenatal developmental toxicity study, wistar, Oral, Gavage/Intubation, dose end: 15 GD
mouse [8] = settings: Carcinogenicity, b6c3f1, Oral, Feed, dose end: 24 month, group: systemic
[9] = systemic / clinical chemistry / cytochrome p450, nos / cytochrome p450, nos + systemic / pathology microscopic / esophagus / hyperkeratosis…
[10] = systemic / pathology gross / skin / desiccation + systemic / pathology microscopic / ear / hyperkeratosis + systemic / pathology microscopic…
[11] = group: developmental, developmental / developmental malformation / bone / incomplete ossification + developmental / developmental malformation / bone / unossified
[12] = group: maternal, systemic / in life observation / clinical signs / erythema + systemic / pathology gross / skin / [other]
[13] = group: maternal, systemic / in life observation / clinical signs / erythema + systemic / pathology gross / skin / [other] + systemic / pathology gross / skin…
[14] = group: developmental, developmental / developmental malformation / bone / [other] + developmental / developmental malformation / bone / absent + developmental / …
[15] = group: maternal, systemic / in life observation / body weight / body weight gain + systemic / in life observation / clinical signs / anal prolapse + systemic…
[16] = group: developmental, developmental / developmental malformation / bone / incomplete ossification + developmental / developmental malformation / bone / unossified…
[17] = group: maternal, systemic / in life observation / body weight / body weight + systemic / in life observation / body weight / body weight gain + systemic / in…
[18] = systemic / pathology microscopic / adrenal gland / hyperplasia + systemic / clinical chemistry / bilirubin / total bilirubin

CCCN(CC)CC1COC2(CCC(C(C)(C)C)CC2)O1 (stereo not drawn) [Spiroxamine]
LEL (dog [1]): 25.8 mg/kg/day | LOAEL (dog [1]): 25.8 mg/kg/day | NEL (dog [1]): 2.48 mg/kg/day | NOAEL (dog [1]): 2.48 mg/kg/day | LEL (rat [2]; [9]): 9.3 mg/kg/day | NEL (rat [2]; [9]): 1.9 mg/kg/day | NOAEL (rat [2]; [9]): 9.3 mg/kg/day | LOAEL (rat [2]; systemic / pathology microscopic / esophagus / hyperkeratosis + systemic / pathology microscopic / esophagus / hyperplasia + systemic / …): 54.9 mg/kg/day | LEL (dog [3]): 20 mg/kg/day | LOAEL (dog [3]): 20 mg/kg/day | NEL (dog [3]): 0.66 mg/kg/day | NOAEL (dog [3]): 0.66 mg/kg/day | LOAEL (mouse [4]; [10]): 59.3 mg/kg/day | NEL (mouse [4]; [10]): 4.5 mg/kg/day | NOAEL (mouse [4]; [10]): 36.7 mg/kg/day | LEL (mouse [4]; systemic / pathology microscopic / esophagus / acanthosis + systemic / pathology microscopic / esophagus / hyperkeratosis + systemic / …): 36.7 mg/kg/day | LEL (rat [5]; [11]): 80 mg/kg/day | LOAEL (rat [5]; [11]): 80 mg/kg/day | NEL (rat [5]; [11]): 20 mg/kg/day | NOAEL (rat [5]; [11]): 20 mg/kg/day | LOAEL (rat [5]; [12]): 5 mg/kg/day | NOAEL (rat [5]; [12]): < 5 mg/kg/day | LEL (rat [5]; [13]): 5 mg/kg/day | NEL (rat [5]; [13]): < 5 mg/kg/day | LEL (rat [6]): 32.8 mg/kg/day | LOAEL (rat [6]): 32.8 mg/kg/day | NEL (rat [6]): 4.22 mg/kg/day | NOAEL (rat [6]): 4.22 mg/kg/day | LEL (rabbit; [14]): 80 mg/kg/day | LOAEL (rabbit; [14]): 80 mg/kg/day | NEL (rabbit; [14]): 20 mg/kg/day | NOAEL (rabbit; [14]): 20 mg/kg/day | LEL (rabbit; [15]): 80 mg/kg/day | LOAEL (rabbit; [15]): 80 mg/kg/day | NEL (rabbit; [15]): 20 mg/kg/day | NOAEL (rabbit; [15]): 20 mg/kg/day | LOAEL (rat [7]; group: developmental, developmental / developmental malformation / bone / [other] + developmental / developmental malformation / mouth / jaw / cleft palate + …): 100 mg/kg/day | LEL (rat [7]; [16]): 10 mg/kg/day | NEL (rat [7]; [16]): < 10 mg/kg/day | NOAEL (rat [7]; [16]): 30 mg/kg/day | LEL (rat [7]; [17]): 100 mg/kg/day | LOAEL (rat [7]; [17]): 100 mg/kg/day | NEL (rat [7]; [17]): 30 mg/kg/day | NOAEL (rat [7]; [17]): 30 mg/kg/day | LOAEL (mouse [8]; systemic / pathology microscopic / adrenal gland / hyperplasia): 150 mg/kg/day | LEL (mouse [8]; [18]): 41 mg/kg/day | NEL (mouse [8]; [18]): < 41 mg/kg/day | NOAEL (mouse [8]; systemic / pathology microscopic / adrenal gland / hyperplasia + systemic / pathology microscopic / adrenal gland / adenoma + systemic / …): 41 mg/kg/day
